Data set [1] can be described thus: Storage stability of solid amorphous metaxalone. It counts as physicochemical. The protocol: A glass vial containing metaxalone Form A was placed in a silicon oil bath at 155° C. Once the solids had melted, the vial was quickly cooled in a dry ice/acetone bath (about −78° C.). Glassy solids resulted.
Data set [2] in a line: Moisture balance (moisture sorption-desorption analysis). It counts as physicochemical. To be noted: for post-MB XRPD form: after moisture balance. An excerpt:
FIG. 6. Moisture sorption-desorption analysis of metaxalone Form A. FIG. 10. Moisture sorption-desorption analysis of metaxalone Form B.

The conditions of data set [3]: pH ˜1.5; cited from earlier work.

Like-named read-outs stand apart in the source and are kept apart here.

Turning to `Cc1cc(C)cc(OCC2CNC(=O)O2)c1` (stereo not shown) [Solid Amorphous Metaxalone, 5-(3′,5′-dimethylphenoxy)methyl-2-oxazolidinone], the “stability against conversion to a crystalline form when stored” value is given as “produce crystalline material” in data set [1] and “not stable” in data set [1] (listed as solid amorphous metaxalone).

In the case of `Cc1cc(C)cc(OCC2CNC(=O)O2)c1` (stereo not shown) [Metaxalone Form B, 5-(3′,5′-dimethylphenoxy)methyl-2-oxazolidinone], in data set [2], the “MB (moisture balance) result” value was “non-hygroscopic” and the “post-MB XRPD form” value is “Form B”.

`Cc1cc(C)cc(OCC2CNC(=O)O2)c1` (stereo not shown) [Metaxalone Form A, 5-(3′,5′-dimethylphenoxy)methyl-2-oxazolidinone]: in data set [2], the “MB (moisture balance) result” value is given as “nonhygroscopic solid” and the “post-MB XRPD form” value was “Form A”.

As for `Cc1cc(C)cc(OCC2CNC(=O)O2)c1` (stereo not shown) [Crystalline metaxalone, 5-(3′,5′-dimethylphenoxy)methyl-2-oxazolidinone], in data set [3], the “solubility at low pH” value is “insoluble”.

Source of the values: patent US20090163561A1, “AMORPHOUS METAXALONE AND AMORPHOUS DISPERSIONS THEREOF” (URL Pharma, Inc., priority 2007, published 2009).
